# Experimental data reported in patent US20240279281A1, “Peptide Inhibitors of Interleukin-23 Receptor” (Janssen Pharmaceutica NV, priority 2023, published 2024).
# Positions of bridges follow the written chain, without caps; N, C: chain ends. Non-standard residues stand in square brackets, D forms with d. Residues, ends and D or L forms follow the SMILES beside them. *: point of attachment. Trp(7-(3-AcNH-Ph)) = CC(=O)Nc1cccc(-c2cccc3c(C[C@H](N)C(=O)O)c[nH]c23)c1; Me3N+(CH2)2O(CH2)2O(CH2)2CO = C[N+](C)(C)CCOCCOCCC(=O)*; NH(CH2CH2O)2CH2CH2NMe3+ = C[N+](C)(C)CCOCCOCCN*; 2Nal(6-OH) = N[C@@H](Cc1ccc2cc(O)ccc2c1)C(=O)O; Trp(7-Me) = Cc1cccc2c(C[C@H](N)C(=O)O)c[nH]c12; dLys(Me3) = C[N+](C)(C)CCCC[C@@H](N)C(=O)O; Dab(NMeAc) = CC(=O)N(C)CC[C@H](N)C(=O)O; X9 = CN(CC*)C(=O)CCOCCOCC[N+](C)(C)C; AEF = NCCOc1ccc(C[C@H](N)C(=O)O)cc1; 3Pal = N[C@@H](Cc1cccnc1)C(=O)O; Ethyl(2-guanidino) = N=C(N)NCC*; Aad = N[C@@H](CCCC(=O)O)C(=O)O; Lys(Me) = CNCCCC[C@H](N)C(=O)O; Pen = CC(C)(S)[C@H](N)C(=O)O; Thp = NC1(C(=O)O)CCOCC1; Sar = CNCC(=O)O
# Key:
# IL-23R = target: T1, IL-23R (Homo sapiens, UniProt Q5VWK5); assay: IL23R Reporter Assay; assay type: cell-based; conditions: HEK293 cells containing IL-23R, IL-12Rβ1 and STAT-inducible luciferase reporter; 10 ng/mL IL-23; 5 h; read-out: IC50
# T1 construct: host or cells: HEK293
# T1 sequence (Q5VWK5 24-629): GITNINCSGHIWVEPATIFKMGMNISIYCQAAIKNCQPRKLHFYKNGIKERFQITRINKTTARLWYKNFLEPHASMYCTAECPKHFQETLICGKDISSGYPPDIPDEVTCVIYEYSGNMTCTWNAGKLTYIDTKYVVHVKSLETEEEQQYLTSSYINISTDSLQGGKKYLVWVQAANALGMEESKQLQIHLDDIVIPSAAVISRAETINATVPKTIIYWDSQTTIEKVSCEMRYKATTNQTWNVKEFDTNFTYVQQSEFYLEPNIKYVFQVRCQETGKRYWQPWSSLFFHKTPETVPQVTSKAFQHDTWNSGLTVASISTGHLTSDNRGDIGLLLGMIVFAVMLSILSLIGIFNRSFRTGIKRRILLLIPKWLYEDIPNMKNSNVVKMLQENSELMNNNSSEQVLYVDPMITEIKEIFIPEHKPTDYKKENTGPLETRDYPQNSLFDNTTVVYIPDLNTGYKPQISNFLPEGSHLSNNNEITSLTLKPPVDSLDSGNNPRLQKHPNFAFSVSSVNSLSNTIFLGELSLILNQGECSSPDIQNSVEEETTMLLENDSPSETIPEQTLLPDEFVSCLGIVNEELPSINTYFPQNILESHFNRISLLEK
# Description: Compounds were serially diluted in 100% (v/v) DMSO) and plated using an Echo acoustic dispenser (Labcyte) into 1536-well non-treated black assay plates (Corning #9146). […] After 5 h at 37° C., 5% CO2, 95% relative humidity, cells were placed at 20° C. and treated with BioGlo reagent (Promega) according to the Manufacturer's instructions. Luminescence was measured on a Pherastar FSX (BMG LabTech).
# [1] = target: T2, IL-23-stimulated phosphorylated STAT3 in peripheral blood mononuclear cells (PBMCs) (Homo sapiens, UniProt Q5VWK5); assay: PBMC pSTAT3 Assay; assay type: cell-based; conditions: PBMCs from healthy donors, IL-23 5 ng/mL, 30 minutes, read-out: PBMC pSTAT3 IC50
# T2 sequence (Q5VWK5 24-629): T1 sequence (Q5VWK5 24-629)
# Description: Cryopreserved peripheral blood mononuclear cells (PBMCs) from healthy donors were thawed and washed twice in ImmunoCult-XF T cell expansion medium (XF-TCEM) supplemented with CTL anti-aggregate wash. The cells were counted, resuspended at 2-6×10^5 cells per mL XF-TCEM supplemented with penicillin/streptomycin and 100 ng/mL IL-1β (BioLegend, 579404), and cultured in tissue culture flasks coated with anti-CD3 (eBioscience, 16-0037-85 or BD Pharmingen, 555329) at 37° C. in 5% CO2. On day 4 of culture, PBMCs were collected, washed twice in RPMI-1640 supplemented with 0.1% BSA (RPMI-BSA), and incubated in RPMI-BSA in upright tissue culture flasks for ˜4 hours at 37° C. in 5% CO2. Following this ‘starvation,’ a total of 6×10^4 cells in 30 μL RPMI-BSA was transferred into each well of a 384-well plate pre-spotted with peptide or DMSO. The cells were incubated for 30 minutes prior to the addition of IL-23 at a final concentration of 5 ng/mL. The cells were stimulated with cytokine for 30 minutes at 37° C. in 5% CO2, transferred onto ice for 10 minutes, and lysed. Cell lysates were stored at −80° C. until phosphorylated STAT3 was measured using the phospho-STAT panel kit (Meso Scale Discovery, K15202D).
Structure (SMILES),IC50 (IL-23R) [nM],IC50 [1] [nM]
"CC(=O)NCCCC[C@@H]1NC(=O)[C@H](Cc2c[nH]c3c(-c4cccc(NC(C)=O)c4)cccc23)NC(=O)[C@H]([C@@H](C)O)NC(=O)[C@H](CC(N)=O)NC(=O)[C@@H](NC(=O)CCOCCOCC[N+](C)(C)C)C(C)(C)SSC(C)(C)[C@@H](C(=O)N[C@@H](Cc2ccc(OCCNC(=N)N)cc2)C(=O)N[C@@H](Cc2ccc3cc(O)ccc3c2)C(=O)NC2(C(=O)N[C@@H](CCCCN(C)C(C)=O)C(=O)N[C@@H](CC(N)=O)C(=O)N[C@@H](Cc3cccnc3)C(=O)N(C)CC(N)=O)CCOCC2)NC1=O [compound 34, cPEG3aCO-Pen(3)-N-T-7(3NAcPh)W-K(Ac)-Pen(3)-AEF(G)-6OH2Nal-THP-K(NMeAc)-N-3Pya-Sar-CONH2] ({Me3N+(CH2)2O(CH2)2O(CH2)2CO}-[Pen]NT[Trp(7-(3-AcNH-Ph))]K(Ac)[Pen]Y(Ethyl(2-guanidino))[2Nal(6-OH)][Thp][Lys(Me)](Ac)N[3Pal][Sar]-NH2; disulfide 1-6)",< 10,0.01 to 0.1
"CC(=O)NCCCC[C@@H]1NC(=O)[C@H](Cc2c[nH]c3c(C)cccc23)NC(=O)[C@H]([C@@H](C)O)NC(=O)[C@@H]2CCC(=O)NCCOc3ccc(cc3)C[C@@H](C(=O)N[C@@H](Cc3ccc4cc(O)ccc4c3)C(=O)NC3(C(=O)N[C@@H](CCCCNC(C)=O)C(=O)N[C@@H](CC(N)=O)C(=O)N[C@@H](Cc4cccnc4)C(=O)N(C)CC(N)=O)CCOCC3)NC(=O)[C@@H](NC1=O)C(C)(C)SSC(C)(C)[C@H](NC(C)=O)C(=O)N2 [SEQ ID NO: 414, MeCO-Pen(3)-E(2)-T-7MeW-K(Ac)-Pen(3)-AEF(2)-6OH2Nal-THP-K(Ac)-N-3Pya-Sar-CONH2] (Ac-[Pen]ET[Trp(7-Me)]K(Ac)[Pen][AEF][2Nal(6-OH)][Thp]K(Ac)N[3Pal][Sar]-NH2; disulfide 1-6; lactam 2-7)",< 10,< 0.01
"CC(=O)NCCCC[C@@H]1NC(=O)[C@H](Cc2c[nH]c3c(-c4cccc(NC(C)=O)c4)cccc23)NC(=O)[C@H]([C@@H](C)O)NC(=O)[C@H](CC(N)=O)NC(=O)[C@@H](NC(=O)[C@@H](CCCC[N+](C)(C)C)NC(C)=O)C(C)(C)SSC(C)(C)[C@@H](C(=O)N[C@@H](Cc2ccc(OCCN)cc2)C(=O)N[C@@H](Cc2ccc3cc(O)ccc3c2)C(=O)NC2(C(=O)N[C@@H](CCC(=O)O)C(=O)N[C@@H](CC(N)=O)C(=O)N[C@@H](Cc3cccnc3)C(=O)N(C)CC(N)=O)CCOCC2)NC1=O [compound 68, MeCO-k(Me)3-Pen(3)-N-T-7(3NAcPh)W-K(Ac)-Pen(3)-AEF-6OH2Nal-THP-E-N-3Pya-Sar-CONH2] (Ac-[dLys(Me3)][Pen]NT[Trp(7-(3-AcNH-Ph))]K(Ac)[Pen][AEF][2Nal(6-OH)][Thp]EN[3Pal][Sar]-NH2; disulfide 2-7)",< 10,0.01 to 0.1
"CC(=O)N(C)CCCC[C@@H]1NC(=O)[C@H](Cc2c[nH]c3c(C)cccc23)NC(=O)[C@H]([C@@H](C)O)NC(=O)[C@H](CC(=O)N(C)C)NC(=O)[C@H]2NC(=O)[C@H](NC(=O)CCOCCOCC[N+](C)(C)C)CCCCNC(=O)CCC[C@@H](C(=O)N[C@@H](CC(N)=O)C(=O)N[C@@H](Cc3cccnc3)C(=O)N(C)CC(=O)N(C)C)NC(=O)C3(CCOCC3)NC(=O)[C@H](Cc3ccc4cc(O)ccc4c3)NC(=O)[C@H](Cc3ccc(OCCN)cc3)NC(=O)[C@@H](NC1=O)C(C)(C)SSC2(C)C [compound 373, cPEG3aCO-k(2)-Pen(3)-N(N(Me)2)-T-7MeW-K(NMeAc)-Pen(3)-AEF-6OH2Nal-THP-hE(2)-N-3Pya-Sar-CON(Me)2] ({Me3N+(CH2)2O(CH2)2O(CH2)2CO}-[dK][Pen]D(NMe2)T[Trp(7-Me)][Lys(Me)](Ac)[Pen][AEF][2Nal(6-OH)][Thp][Aad]N[3Pal][Sar]-NMe2; lactam 1-11; disulfide 2-7)",< 10,< 0.01
"CC(=O)N[C@@H]1C(=O)N[C@@H](CC(=O)N(C)C)C(=O)N[C@@H]([C@@H](C)O)C(=O)N[C@@H](Cc2c[nH]c3c(C)cccc23)C(=O)N[C@@H](CCCCN(C)C(C)=O)C(=O)N[C@H](C(=O)N[C@@H](Cc2ccc(OCCN(C)C(=O)CCOCCOCC[N+](C)(C)C)cc2)C(=O)N[C@@H](Cc2ccc3cc(O)ccc3c2)C(=O)NC2(C(=O)N[C@@H](CCCCN(C)C(C)=O)C(=O)N[C@@H](CC(N)=O)C(=O)N[C@@H](Cc3cccnc3)C(=O)N(C)CC(=O)NCCOCCOCC[N+](C)(C)C)CCOCC2)C(C)(C)SSC1(C)C [compound 315, MeCO-Pen(3)-N(NMe2)-T-7MeW-K(NMeAc)-Pen(3)-AEF(NMePEG3a)-6OH2Nal-THP-K(NMeAc)-N-3Pya-Sar-CONH(PEG3a)] (Ac-[Pen]D(NMe2)T[Trp(7-Me)][Lys(Me)](Ac)[Pen]Y(X9)[2Nal(6-OH)][Thp][Lys(Me)](Ac)N[3Pal][Sar]-{NH(CH2CH2O)2CH2CH2NMe3+}; disulfide 1-6)",< 10,0.01 to 0.1

# Other lines, results leading:
IC50 (IL-23R) [nM],IC50 [1] [nM],Structure (SMILES)
< 10,< 0.01,"CC(=O)N(C)CCCC[C@@H]1NC(=O)[C@H](Cc2c[nH]c3c(C)cccc23)NC(=O)[C@H]([C@@H](C)O)NC(=O)[C@H](CC(N)=O)NC(=O)[C@@H](NC(=O)CCOCCOCC[N+](C)(C)C)C(C)(C)SSC(C)(C)[C@@H](C(=O)N[C@@H](Cc2ccc(OCCN)cc2)C(=O)N[C@@H](Cc2ccc3cc(O)ccc3c2)C(=O)NC2(C(=O)N[C@@H](CCC(=O)N(C)C)C(=O)N[C@@H](CC(N)=O)C(=O)N[C@@H](Cc3cccnc3)C(=O)N(C)CC(N)=O)CCOCC2)NC1=O [compound 392, cPEG3aCO-Pen(3)-N-T-7MeW-K(NMeAc)-Pen(3)-AEF-6OH2Nal-THP-Q(N(Me)2)-N-3Pya-Sar-CONH2] ({Me3N+(CH2)2O(CH2)2O(CH2)2CO}-[Pen]NT[Trp(7-Me)][Lys(Me)](Ac)[Pen][AEF][2Nal(6-OH)][Thp]E(NMe2)N[3Pal][Sar]-NH2; disulfide 1-6)"
< 10,< 0.01,"CC(=O)N(C)CCCC[C@@H]1NC(=O)[C@H](Cc2c[nH]c3c(C)cccc23)NC(=O)[C@H]([C@@H](C)O)NC(=O)[C@H](CC(=O)N(C)C)NC(=O)[C@@H](NC(=O)CCOCCOCC[N+](C)(C)C)C(C)(C)SSC(C)(C)[C@@H](C(=O)N[C@@H](Cc2ccc(OCCN)cc2)C(=O)N[C@@H](Cc2ccc3cc(O)ccc3c2)C(=O)NC2(C(=O)N[C@@H](CCN(C)C(C)=O)C(=O)N[C@@H](CC(N)=O)C(=O)N[C@@H](Cc3cccnc3)C(=O)N(C)CC(=O)N(C)C)CCOCC2)NC1=O [compound 371, cPEG3aCO-Pen(3)-N(N(Me)2)-T-7MeW-K(NMeAc)-Pen(3)-AEF-6OH2Nal-THP-Dab(NMeAc)-N-3Pya-Sar-CON(Me)2] ({Me3N+(CH2)2O(CH2)2O(CH2)2CO}-[Pen]D(NMe2)T[Trp(7-Me)][Lys(Me)](Ac)[Pen][AEF][2Nal(6-OH)][Thp][Dab(NMeAc)]N[3Pal][Sar]-NMe2; disulfide 1-6)"
< 10,0.01 to 0.1,"Cc1cccc2c(C[C@@H]3NC(=O)[C@H]([C@@H](C)O)NC(=O)[C@H](CC(N)=O)NC(=O)[C@@H](NC(=O)CCOCCOCC[N+](C)(C)C)C(C)(C)SSC(C)(C)[C@@H](C(=O)N[C@@H](Cc4ccc(OCCN)cc4)C(=O)N[C@@H](Cc4ccc5cc(O)ccc5c4)C(=O)NC4(C(=O)N[C@@H](CCC(=O)O)C(=O)N[C@@H](CC(N)=O)C(=O)N[C@@H](Cc5cccnc5)C(=O)N(C)CC(N)=O)CCOCC4)NC(=O)[C@H](CCCCN(C)C(=O)CCOCCOCC[N+](C)(C)C)NC3=O)c[nH]c12 [compound 319, cPEG3aCO-Pen(3)-N-T-7MeW-K(NMecPEG3a)-Pen(3)-AEF-6OH2Nal-THP-E-N-3Pya-Sar-CONH2] ({Me3N+(CH2)2O(CH2)2O(CH2)2CO}-[Pen]NT[Trp(7-Me)][Lys(Me)](Me3N+(CH2)2O(CH2)2O(CH2)2CO)[Pen][AEF][2Nal(6-OH)][Thp]EN[3Pal][Sar]-NH2; disulfide 1-6)"
